Values of other authors in patent US20200171007A1, “Methods of Treating Hepatorenal Syndrome and Hepatic Encephalopathy with Thromboxane-A2 Receptor Antagonists” (Cumberland Pharmaceuticals Inc., priority 2010, published 2020).
One block for each compound: values may come before it. Where a SMILES comes first, the peptide text is derived from it. Bridges are numbered along the chain shown (N, C = ends). [ ]: non-standard residue; d: D form.

What was measured:
[1] = tested on: patients with hepatorenal syndrome; conditions: ornipressin and albumin
[2] = tested on: patients with type 1 hepatorenal syndrome; conditions: type 1 hepatorenal syndrome (octapressin); short-term use (ornipressin)
[3] = tested on: patients with cirrhosis; conditions: patients with cirrhosis / hepatorenal syndrome
[4] = tested on: patients with hepatorenal syndrome
[5] = tested on: patients with type 1 hepatorenal syndrome
[6] = tested on: patients with type 1 hepatorenal syndrome; conditions: nonpressor doses, with albumin
[7] = tested on: patients with hepatorenal syndrome; conditions: five studies
[8] = tested on: patients with hepatorenal syndrome; conditions: intravenous, twelve patients
[9] = tested on: patients with cirrhosis, ascites, and hepatorenal syndrome; conditions: case series
[10] = includes 2 patients who received liver transplantation

patients in whom treatment had to be discontinued because of complications (ischemic colitis, tongue ischemia, glossitis) ([1]; 8 patients, after fewer than 9 days): 4 patients
SMILES: NCCC[C@H](NC(=O)[C@@H]1CCCN1C(=O)[C@@H]1CSSC[C@H](N)C(=O)N[C@@H](Cc2ccc(O)cc2)C(=O)N[C@@H](Cc2ccccc2)C(=O)N[C@@H](CCC(N)=O)C(=O)N[C@@H](CC(N)=O)C(=O)N1)C(=O)NCC(N)=O [ornipressin]
improvement in renal plasma flow and glomerular filtration rate ([1]; remaining 4 patients treated for 15 days): significant
Renal plasma flow and glomerular filtration rate [2]: significant increase

SMILES: Cc1ccc(N(CC2=NCCN2)c2cccc(O)c2)cc1 [phentolamine]
effect on blood pressure and renal function [3]: Poor results

Ischemic complications ([5]; in vivo): < 5%
SMILES: NCCCC[C@H](NC(=O)[C@@H]1CCCN1C(=O)[C@@H]1CSSC[C@H](NC(=O)CNC(=O)CNC(=O)CN)C(=O)N[C@@H](Cc2ccc(O)cc2)C(=O)N[C@@H](Cc2ccccc2)C(=O)N[C@@H](CCC(N)=O)C(=O)N[C@@H](CC(N)=O)C(=O)N1)C(=O)NCC(N)=O [terlipressin] (H-GGGCYFQNCPKG-NH2; disulfide 4-9)
adverse ischemic effects ([4]; human, in vivo): No adverse ischemic effects were reported
Reversal of hepatorenal syndrome ([4]; terlipressin and albumin for 5-15 days, 9 patients treated): 7 of 9
recurrent hepatorenal syndrome after treatment discontinuation ([5]; in conjunction with albumin): < 15%
improvement in glomerular filtration rate and reduction in serum creatinine levels to below 1.5 mg/dL, share of patients ([5]; in conjunction with albumin, type 1 hepatorenal syndrome): 60-75%

SMILES: NCCc1ccc(O)c(O)c1 [dopamine]
improvement in renal function [6]: none of the patients treated with dopamine showed any improvement in renal function
changes in renal plasma flow, glomerular filtration rate, or urine output [7]: none have reported significant changes

SMILES: CNCC(=O)N[C@@H](CCCN=C(N)N)C(=O)N[C@H](C(=O)N[C@@H](Cc1ccc(O)cc1)C(=O)N[C@H](C(=O)N[C@@H](Cc1cnc[nH]1)C(=O)N1CCC[C@H]1C(=O)N[C@@H](C)C(=O)O)C(C)C)C(C)C [Saralasin]
effect on blood pressure and renal function [3]: worsening hypotension and deterioration in renal function

SMILES: CC(=O)N[C@@H](CS)C(=O)O [NAC, N-acetylcysteine]
adverse effects [8]: without any adverse effects
survival rate at 1 month [8, 10]: 67%
survival rate at 3 months [8, 10]: 58%

SMILES: CC(C)C[C@@H]1NC(=O)[C@@H](C(C)C)NC(=O)[C@@H]2CCCN2C(=O)[C@@H](CC(=O)O)NC(=O)[C@@H](Cc2c[nH]c3ccccc23)NC1=O [BQ123] (cyclo(L[dW][dD]P[dV]))
patients with improvement in the glomerular filtration rate [9]: 3 patients
